According to patent US20260028364A1, “CATIONIC CHROMENONES AND THEIR USE IN ONCOLOGY” (FLORATEK PHARMA S.A., priority 2022, published 2026):

Legend:
HepG2 = assay: CellTiter-Glo cell viability, HepG2; type: cell-based; settings: HepG2 cells, 72 h with compound
Description: (§1) Antitumor activity against a panel of cancer cell lines Antitumor activity of the compounds was assessed by using the CellTiter-Glow® Luminescent Cell Viability assay (Promega #G7572) according to the manufacturer's instructions. The compounds were tested at 5 or 6 concentrations in 1:2 dilution increments (highest concentration 10 µM) in triplicate well conditions.
(§2) Tumor cells were grown at 37° C. in a humidified atmosphere with 5% CO2 in RPMI 1640 or DMEM medium, supplemented with 10% (v/v) fetal calf serum and 50 μg/ml gentamicin for up to 20 passages, and were passaged once or twice weekly. Cells were harvested using TrypLE or PBS buffer containing 1 mM EDTA, and the percentage of viable cells is determined using a cell counter.
(§3) Cells were harvested from exponential phase cultures, counted and plated in 96 well flat-bottom microtiter plates at a cell density depending on the cell line's growth rate (4,000-20,000 cells/well depending on the cell line's growth rate) in RPMI 1640 or DMEM medium supplemented with 10% (v/v) fetal calf serum and 50 μg/ml gentamicin (140 μl/well). Cultures were incubated at 37° C. and 5% CO2 in a humidified atmosphere. After 24 h, 10 μl of test compounds or control medium are added, and left on the cells for another 72 h. Compounds were serially diluted in DMSO, transferred in cell culture medium, and added to the assay plates. The DMSO concentration was kept constant at <0.2% v/v across the assay plate. Viability of cells was quantified by the CellTiter-Glow® Luminescent Cell Viability assay (Promega #G7572). Luminescence was measured with the microplate luminometer (En Vision Perkin Elmer).
(§4) Sigmoidal concentration-response curves were fitted to the data points (test-versus-control, T/C values) obtained for each tumor model using Graph Pad prism 5.02 software. IC50 values are reported as absolute IC50 values, being the concentration of test compound at the intersection of the concentration-response curves with T/C=50%.

U87MG = assay: CellTiter-Glo cell viability, U87MG; type: cell-based; settings: U87MG cells, 72 h with compound
Description: as §1, §2, §3, §4

A375 = assay: CellTiter-Glo cell viability, A375; type: cell-based; settings: A375 cells, 72 h with compound
Description: as §1, §2, §3, §4

22Rv1 = assay: CellTiter-Glo cell viability, 22Rv1; type: cell-based; settings: 22Rv1 cells, 72 h with compound
Description: as §1, §2, §3, §4

SK-Mel-5 = assay: CellTiter-Glo cell viability, SK-Mel-5; type: cell-based; settings: SK-Mel-5 cells, 72 h with compound
Description: as §1, §2, §3, §4

A-673 = assay: CellTiter-Glo cell viability, A-673; type: cell-based; settings: A-673 cells, 72 h with compound
Description: as §1, §2, §3, §4

A2058 = assay: CellTiter-Glo cell viability, A2058; type: cell-based; settings: A2058 cells, 72 h with compound
Description: as §1, §2, §3, §4

[1] = system: A2058 melanoma tumor cells; assay: In vivo tumour inhibition, A2058 melanoma xenograft; set-up: species or system Balb-c/nude mouse; settings: for T/C / TGI: Example 5, 12 mg/kg, day 20 after treatment start; for activity in inhibiting A2058 melanoma cell line in vivo: nude mouse xenograft model of melanoma
Description: The A2058 tumor cells were maintained in vitro in DMEM medium supplemented with 10% fetal bovine serum and 1% Anti-Anti at 37° C. in an atmosphere of 5% CO2 in air. The tumor cells were routinely subcultured twice weekly.
Each Balb-c/nude mouse was inoculated subcutaneously at the right flank with A2058 melanoma tumor cells (5×10^6+Matrigel) in 0.2 ml of PBS for tumor development. 10 animals per group were randomized when the average tumor volume reached 74 mm^3. Test compounds were prepared as DMSO stocks and diluted in the injection vehicle before administration. The treatment was administered every other day (QOD) as a peritumoral injection. Vehicle composition was 4% DMSO, 5% ethanol, 20% PEG200, 71% saline. Dosing volume for all groups: 5 mL/kg.
Tumor volume was measured twice weekly in two dimensions using a caliper, and the volume was expressed in mm^3 using the formula: V=0.5a×b^2 where a and b are the long and short diameters of the tumor, respectively. The tumor size was then used for calculations of T/C value: The T/C value (in percent) is an indication of antitumor effectiveness; T and Care the mean volumes of the treated and control groups, respectively, on a given day.
One-way ANOVA was performed to compare tumor volume among treated groups and vehicle group, all data were analyzed using GraphPad Prism 5.0. p<0.05 was considered to be statistically significant.

MIA-PaCa-2 = assay: CellTiter-Glo cell viability, MIA-PaCa-2; type: cell-based; settings: MIA-PaCa-2 cells, 72 h with compound
Description: as §1, §2, §3, §4

H69 = assay: CellTiter-Glo cell viability, H69; type: cell-based; settings: H69 cells, 72 h with compound
Description: as §1, §2, §3, §4

BxPC-3 = assay: CellTiter-Glo cell viability, BxPC-3; type: cell-based; settings: BxPC-3 cells, 72 h with compound
Description: as §1, §2, §3, §4

MCF-7 = assay: CellTiter-Glo cell viability, MCF-7; type: cell-based; settings: MCF-7 cells, 72 h with compound
Description: as §1, §2, §3, §4

HCC-15 = assay: CellTiter-Glo cell viability, HCC-15; type: cell-based; settings: HCC-15 cells, 72 h with compound
Description: as §1, §2, §3, §4

NCI-H1299 = assay: CellTiter-Glo cell viability, NCI-H1299; type: cell-based; settings: H1299 cells, 72 h with compound
Description: as §1, §2, §3, §4

SK-N-SH = assay: CellTiter-Glo cell viability, SK-N-SH; type: cell-based; settings: SK-N-SH cells, 72 h with compound
Description: as §1, §2, §3, §4

MOLT-4 = assay: CellTiter-Glo cell viability, MOLT-4; type: cell-based; settings: Homo sapiens; MOLT-4 cells, 72 h with compound
Description: as §1, §2
as §3, with “After 24 h, 10 μl of test compounds or control medium are added, and left on the cells for another 72 h. Compounds were serially diluted in DMSO, transferred in cell culture medium, and added to the assay plates. The DMSO concentration was kept constant at <0.2% v/v across the assay plate.” left out, “Elmer). […]” for “Elmer).”

Raji = assay: CellTiter-Glo cell viability, Raji; type: cell-based; settings: Homo sapiens; Raji cells, 72 h with compound
Description: as §1, §2
as §3, with “After 24 h, 10 μl of test compounds or control medium are added, and left on the cells for another 72 h. Compounds were serially diluted in DMSO, transferred in cell culture medium, and added to the assay plates. The DMSO concentration was kept constant at <0.2% v/v across the assay plate.” left out, “Elmer). […]” for “Elmer).”

LNCaP = assay: CellTiter-Glo cell viability, LNCaP; type: cell-based; settings: LNCaP cells, 72 h with compound
Description: as §1, §2
as §3, with “After 24 h, 10 μl of test compounds or control medium are added, and left on the cells for another 72 h. Compounds were serially diluted in DMSO, transferred in cell culture medium, and added to the assay plates. The DMSO concentration was kept constant at <0.2% v/v across the assay plate.” left out, “Elmer). […]” for “Elmer).”

MDA-MB-468 = assay: CellTiter-Glo cell viability, MDA-MB-468; type: cell-based; settings: MDA-MB-468 cells, 72 h with compound
Description: as §1, §2
as §3, with “After 24 h, 10 μl of test compounds or control medium are added, and left on the cells for another 72 h. Compounds were serially diluted in DMSO, transferred in cell culture medium, and added to the assay plates. The DMSO concentration was kept constant at <0.2% v/v across the assay plate.” left out, “Elmer). […]” for “Elmer).”

H460 = assay: CellTiter-Glo cell viability, H460; type: cell-based; settings: H460 cells, 72 h with compound
Description: as §1, §2
as §3, with “After 24 h, 10 μl of test compounds or control medium are added, and left on the cells for another 72 h. Compounds were serially diluted in DMSO, transferred in cell culture medium, and added to the assay plates. The DMSO concentration was kept constant at <0.2% v/v across the assay plate.” left out, “Elmer). […]” for “Elmer).”

LoVo = assay: CellTiter-Glo cell viability, LoVo; type: cell-based; settings: LoVo cells, 72 h with compound
Description: as §1, §2
as §3, with “After 24 h, 10 μl of test compounds or control medium are added, and left on the cells for another 72 h. Compounds were serially diluted in DMSO, transferred in cell culture medium, and added to the assay plates. The DMSO concentration was kept constant at <0.2% v/v across the assay plate.” left out, “Elmer). […]” for “Elmer).”

Kelly = assay: CellTiter-Glo cell viability, Kelly; type: cell-based; settings: Kelly cells, 72 h with compound
Description: as §1, §2, §3, §4

Row | Structure (SMILES) | IC50 (A375) [nM] | IC50 (22Rv1) [nM] | IC50 (SK-Mel-5) [nM] | IC50 (MIA-PaCa-2) [nM] | IC50 (BxPC-3) [nM] | IC50 (HCC-15) [nM] | IC50 (SK-N-SH) [nM] | IC50 (HepG2) [nM] | IC50 (U87MG) [nM] | IC50 (A-673) [nM] | IC50 (A2058) [nM] | IC50 (H69) [nM] | IC50 (MCF-7) [nM] | IC50 (NCI-H1299) [nM] | also measured
1 | COc1ccc2c(=O)c(-c3ccc(CCCCCC[P+](c4ccccc4)(c4ccccc4)c4ccccc4)cc3)coc2c1OC.[Cl-] [SND477] | 210 | 110 | 160 | 200 | 260 | 240 | 550 | 660 | 320 | 600 | 240 | 230 | 210 | 310 | T/C [1]: 35.6%; TGI [1]: 68.7%; activity in inhibiting A2058 melanoma cell line in vivo [1]: significant activity
2 | COc1ccc2c(=O)c(-c3ccc(CCCCCCCC[P+](c4ccccc4)(c4ccccc4)c4ccccc4)cc3)coc2c1OC [SND478] | 240 | 170 | 150 | 190 | 250 | 220 | 490 | 680 | 390 | 650 | 270 | 210 | 220 | 260 | –
3 | COc1ccc2c(=O)c(-c3ccc(CCCCCCCCCC[P+](c4ccccc4)(c4ccccc4)c4ccccc4)cc3)coc2c1OC.[Cl-] [SND479] | 210 | 170 | 110 | 110 | 220 | 190 | 210 | 440 | 240 | 440 | 190 | 230 | 170 | 200 | T/C [1]: 33.5%; TGI [1]: 70.0%; activity in inhibiting A2058 melanoma cell line in vivo [1]: significant activity
4 | O=c1c(-c2ccc(CCCC[P+](c3ccccc3)(c3ccccc3)c3ccccc3)cc2)coc2c(O)c(O)ccc12 [SND490, (4-(4-(7,8-Dihydroxy-4-oxo-4H-chromen-3-yl)phenyl)butyl)triphenylphosphonium bromide] | – | – | – | – | – | – | – | – | – | – | – | – | – | – | IC50 (MOLT-4): 560 nM; IC50 (A-673; Homo sapiens, A673): 1950 nM
5 | COc1c(O)ccc2c(=O)c(-c3ccc(CCCC[P+](c4ccccc4)(c4ccccc4)c4ccccc4)cc3)coc12 [SND530, (4-(4-(7-Hydroxy-8-methoxy-4-oxo-4H-chromen-3-yl)phenyl)butyl)triphenylphosphonium bromide] | – | – | – | – | – | – | – | – | – | – | – | – | – | – | IC50 (U87MG; Homo sapiens, U-87 MG): 1900 nM; IC50 (A375; Homo sapiens, A-375): 1500 nM; IC50 (SK-Mel-5; Homo sapiens): 1100 nM; IC50 (A-673; Homo sapiens, A673): 500 nM; IC50 (MIA-PaCa-2; Homo sapiens): 1200 nM; IC50 (MCF-7; Homo sapiens, MCF7): 1000 nM; IC50 (HCC-15; HCC15): 3700 nM; IC50 (NCI-H1299; Homo sapiens, NCI-H1299): 1400 nM; IC50 (Raji): 140 nM
6 | COc1ccc2c(=O)c(-c3cccc(CC[P+](c4ccccc4)(c4ccccc4)c4ccccc4)c3)coc2c1OC [SND542] | 760 | 800 | 870 | 430 | 1460 | 1470 | 2750 | – | – | – | 690 | 210 | – | – | IC50 (LNCaP): 690 nM; IC50 (MDA-MB-468): 510 nM; IC50 (H460): 1780 nM; IC50 (LoVo): 4.83 µM; IC50 (Kelly): 1710 nM
7 | COc1ccc2c(=O)c(-c3cccc(C[P+](c4ccccc4)(c4ccccc4)c4ccccc4)c3)coc2c1OC [SND543] | 1510 | 920 | 970 | 630 | 1810 | 1340 | 3870 | – | – | – | 980 | 970 | – | – | IC50 (LNCaP): 680 nM; IC50 (MDA-MB-468): 560 nM; IC50 (H460): 2000 nM; IC50 (Kelly): 1440 nM
8 | COc1ccc2c(=O)c(-c3ccc(CC[P+](c4ccccc4)(c4ccccc4)c4ccccc4)cc3)coc2c1OC [SND550] | – | – | – | – | – | – | – | – | – | – | – | – | – | – | IC50 (A375; Homo sapiens, A-375): 920 nM; IC50 (22Rv1; Homo sapiens): 750 nM; IC50 (MIA-PaCa-2; Homo sapiens): 4300 nM; IC50 (H69; Homo sapiens, NCI-H69): 680 nM; IC50 (HCC-15; HCC15): 1300 nM; IC50 (NCI-H1299; Homo sapiens, NCI-H1299): 1300 nM; IC50 (SK-N-SH; Homo sapiens): 3690 nM
